Laboratory results as given in PubChem BioAssay AID1259411 (Chemical Carcinogenesis Research Information System (CCRIS), 2018).
Active and inactive are the calls of the source. The rule behind the calls is not given here.

System: rodent carcinogenicity bioassays, tumor incidence
Assay: CCRIS carcinogenicity studies
Details: Dose: 0, Dose: 0
In short: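 Archive of carcinogenicity, mutagenicity, tumor promotion and tumor inhibition results drawn from journals, NCI reports and other sources, expert-reviewed; covers 1985-2011 and is no longer updated.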

Question: `O=c1[nH]c2ccccc2c2ccccc12` was tested. Which carcinogen call (Species: MOUSE, Strain/Sex: CD-1/FEMALE, Route: INTRAPERITONEAL, 5, 10 AND 20 µL OF A 0.05 MOLAR SOLUTION ON DAYS 1, 8 AND 15 OF LIFE RESPECTIVELY (TOTAL DOSE: 1.75 UMOL) (STUDY DURA, 5, 10 AND 20 µL OF A 0.05 MOLAR SOLUTION ON DAYS 1, 8 AND 15 OF LIFE RESPECTIVELY (TOTAL DOSE: 1.75 UMOL) (STUDY DURA) did it give?
Answer: inactive; negative

Question: And the carcinogen call (Species: MOUSE, Strain/Sex: CD-1/MALE, Route: INTRAPERITONEAL, 5, 10 AND 20 µL OF A 0.05 MOLAR SOLUTION ON DAYS 1, 8 AND 15 OF LIFE RESPECTIVELY (TOTAL DOSE: 1.75 UMOL) (STUDY DURA, 5, 10 AND 20 µL OF A 0.05 MOLAR SOLUTION ON DAYS 1, 8 AND 15 OF LIFE RESPECTIVELY (TOTAL DOSE: 1.75 UMOL) (STUDY DURA)?
Answer: inactive; negative

Question: For `CN(Cc1ccccc1)N=O`, which carcinogen call (Species: MOUSE, Strain/Sex: CD-1/MALE, FEMALE, Route: INTRAPERITONEAL, 4 MG/KG 2/WK FOR 12 WK, 8 MG/KG 2/WK FOR 6 WK, 16 MG/KG 2/WK FOR 3 WK FOR TOTAL DOSES OF 96 MG/KG (STUDY DURATION: 40, 4 MG/KG 2/WK FOR 12 WK, 8 MG/KG 2/WK FOR 6 WK, 16 MG/KG 2/WK FOR 3 WK FOR TOTAL DOSES OF 96 MG/KG (STUDY DURATION: 40, Tumor Site: Type of Lesion: FORESTOMACH: PAPILLOMA, CARCINOMA) is on record?
Answer: active; positive

Question: And the carcinogen call (Species: RAT, Strain/Sex: SPRAGUE-DAWLEY/MALE, Route: GAVAGE, 0.5, 2 MG/KG IN SALINE ONCE ADMINISTERED TO RATS MAINTAINED ON ZINC-DEFICIENT DIET (STUDY DURATION: 14 WK), 0.5, 2 MG/KG IN SALINE ONCE ADMINISTERED TO RATS MAINTAINED ON ZINC-DEFICIENT DIET (STUDY DURATION: 14 WK), Tumor Site: Type of Lesion: ESOPHAGUS: TUMOR)?
Answer: active; positive

Question: Which carcinogen call (Species: RAT, Strain/Sex: F344/MALE, Route: GAVAGE, 10 MG IN 50 µL DMSO 5 D/WK FOR 6 WK (STUDY DURATION: 108 WK), Tumor Site: Type of Lesion: LIVER: CARCINOMA) does the source give for `C[C@H](CCC(=O)N(CCS(=O)(=O)O)N=O)[C@H]1CCC2C3C(C[C@H](O)[C@@]21C)[C@@]1(C)CC[C@@H](O)C[C@H]1C[C@H]3O` (some centres not stated) here?
Answer: active; positive

Question: What does the source list for `O=[N+]([O-])c1ccc2ccc3c([N+](=O)[O-])c4ccccc4c4ccc1c2c34`?
Answer: carcinogen call (Species: RAT, Strain/Sex: F344/MALE, Route: SUBCUTANEOUS IMPLANT, 8, 40, 200, 1000 UG IN 50 µL BEESWAX/TRICAPRYLIN IMPLANTED FOR UP TO 45 WK (STUDY DURATION: 45 WK), 8, 40, 200, 1000 UG IN 50 µL BEESWAX/TRICAPRYLIN IMPLANTED FOR UP TO 45 WK (STUDY DURATION: 45 WK)): inactive; negative; carcinogen call (Species: RAT, Strain/Sex: F344/MALE, Route: SUBCUTANEOUS, 8, 40, 200, 1000 UG SUSPENDED IN BEESWAX/TRICAPRYLIN (1:1) ONCE, 8, 40, 200, 1000 UG SUSPENDED IN BEESWAX/TRICAPRYLIN (1:1) ONCE): inactive; negative

Question: Which results are given for `c1ccc2c(c1)ccc1cccnc12`?
Answer: carcinogen call (Species: RAT, Strain/Sex: SPRAGUE-DAWLEY/FEMALE, Route: SUBCUTANEOUS, 200 UMOL/KG IN DMSO INTO SUPRASCAPULAR AREA ON DAY 1 OF LIFE FOLLOWED BY 0, 100 UMOL 1/WK AT WK 2-7 THEN O, 200 UMOL/, 200 UMOL/KG IN DMSO INTO SUPRASCAPULAR AREA ON DAY 1 OF LIFE FOLLOWED BY 0, 100 UMOL 1/WK AT WK 2-7 THEN O, 200 UMOL/): inactive; negative; carcinogen call (Species: RAT, Strain/Sex: SPRAGUE-DAWLEY/MALE, Route: SUBCUTANEOUS, 200 UMOL/KG IN DMSO INTO SUPRASCAPULAR AREA ON DAY 1 OF LIFE FOLLOWED BY 0, 100 UMOL 1/WK AT WK 2-7 THEN O, 200 UMOL/, 200 UMOL/KG IN DMSO INTO SUPRASCAPULAR AREA ON DAY 1 OF LIFE FOLLOWED BY 0, 100 UMOL 1/WK AT WK 2-7 THEN O, 200 UMOL/): inactive; negative

Question: Which carcinogen call (Species: MOUSE, Strain/Sex: B6C3F1/FEMALE, Route: GAVAGE, 869, 1739 MG/KG/D, TWA, 869, 1739 MG/KG/D, TWA, Tumor Site: Type of Lesion: LIVER: HEPATOCELLULAR CARCINOMA) does the source give for `ClC=C(Cl)Cl` here?
Answer: active; positive

Question: What about the carcinogen call (Species: MOUSE, Strain/Sex: B6C3F1/FEMALE, Route: GAVAGE, 1000 MG/KG IN CORN OIL 5 D/WK FOR 103 WK (STUDY DURATION: 107 WK), Tumor Site: Type of Lesion: LIVER: ADENOMA, CARCINOMA) of the same compound?
Answer: active; positive

Question: What about the carcinogen call (Species: MOUSE, Strain/Sex: B6C3F1/FEMALE, Route: INHALATION, 100, 300, 600 PPM 7 HR/D 5 D/WK FOR 78 WK (STUDY DURATION: LIFETIME), 100, 300, 600 PPM 7 HR/D 5 D/WK FOR 78 WK (STUDY DURATION: LIFETIME), Tumor Site: Type of Lesion: LUNG: TUMOR) of the same compound?
Answer: active; positive

Question: What about the carcinogen call (Species: MOUSE, Strain/Sex: B6C3F1/MALE, Route: GAVAGE, 1000 MG/KG IN CORN OIL 5 D/WK FOR 103 WK (STUDY DURATION: 107 WK), Tumor Site: Type of Lesion: LIVER: ADENOMA, CARCINOMA) of the same compound?
Answer: active; positive

Question: And the carcinogen call (Species: MOUSE, Strain/Sex: B6C3F1/MALE, Route: GAVAGE, 1169, 2339 MG/KG/D, TWA, 1169, 2339 MG/KG/D, TWA, Tumor Site: Type of Lesion: LIVER: HEPATOCELLULAR CARCINOMA)?
Answer: active; positive

Question: What about the carcinogen call (Species: MOUSE, Strain/Sex: B6C3F1/MALE, Route: INHALATION, 100, 300, 600 PPM 7 HR/D 5 D/WK FOR 78 WK (STUDY DURATION: LIFETIME), 100, 300, 600 PPM 7 HR/D 5 D/WK FOR 78 WK (STUDY DURATION: LIFETIME)) of the same compound?
Answer: inactive; negative

Question: And the carcinogen call (Species: MOUSE, Strain/Sex: ICR/MALE, FEMALE, Route: GAVAGE, 10 MG/KG IN CORN OIL 5 D/WK FOR 18 MO (DOSES REDUCED BY FACTOR OF 2 FROM 40TH WEEK)(STUDY DURATION: 24 MO))?
Answer: inactive; negative

Question: What about the carcinogen call (Species: MOUSE, Strain/Sex: SWISS/FEMALE, Route: INHALATION, 100, 300, 600 PPM 7 HR/D 5 D/WK FOR 78 WK (STUDY DURATION: LIFETIME), 100, 300, 600 PPM 7 HR/D 5 D/WK FOR 78 WK (STUDY DURATION: LIFETIME)) of the same compound?
Answer: inactive; negative

Question: What about the carcinogen call (Species: MOUSE, Strain/Sex: SWISS/MALE, Route: INHALATION, 100, 300, 600 PPM 7 HR/D 5 D/WK FOR 78 WK (STUDY DURATION: LIFETIME), 100, 300, 600 PPM 7 HR/D 5 D/WK FOR 78 WK (STUDY DURATION: LIFETIME), Tumor Site: Type of Lesion: LUNG: TUMOR, LIVER: HEPATOMA) of the same compound?
Answer: active; positive

Question: What about the carcinogen call (Species: RAT, Strain/Sex: F344/FEMALE, Route: GAVAGE, 500, 1000 MG/KG IN CORN OIL 5 D/WK FOR 103 WK (STUDY DURATION: 107 WK), 500, 1000 MG/KG IN CORN OIL 5 D/WK FOR 103 WK (STUDY DURATION: 107 WK)) of the same compound?
Answer: inactive; negative

Question: And the carcinogen call (Species: RAT, Strain/Sex: SPRAGUE-DAWLEY/FEMALE, Route: GAVAGE, 50, 250 MG/KG BW IN OLIVE OIL 1/D 4-6 D/WK FOR 52 WK (STUDY DURATION: LIFETIME), 50, 250 MG/KG BW IN OLIVE OIL 1/D 4-6 D/WK FOR 52 WK (STUDY DURATION: LIFETIME), Tumor Site: Type of Lesion: [BRAIN WAS ONLY SITE EVALUATED])?
Answer: inactive; negative

Question: And the carcinogen call (Species: RAT, Strain/Sex: SPRAGUE-DAWLEY/FEMALE, Route: INHALATION, 100, 300, 600 PPM 7 HR/D 5 D/WK FOR 104 WK (STUDY DURATION: LIFETIME), 100, 300, 600 PPM 7 HR/D 5 D/WK FOR 104 WK (STUDY DURATION: LIFETIME))?
Answer: inactive; negative

Question: What about the carcinogen call (Species: RAT, Strain/Sex: SPRAGUE-DAWLEY/MALE, Route: GAVAGE, 50, 250 MG/KG BW IN OLIVE OIL 1/D 4-6 D/WK FOR 52 WK (STUDY DURATION: LIFETIME), 50, 250 MG/KG BW IN OLIVE OIL 1/D 4-6 D/WK FOR 52 WK (STUDY DURATION: LIFETIME), Tumor Site: Type of Lesion: [BRAIN WAS ONLY SITE EVALUATED]) of the same compound?
Answer: inactive; negative

Question: And the carcinogen call (Species: RAT, Strain/Sex: SPRAGUE-DAWLEY/MALE, Route: INHALATION, 100, 300, 600 PPM 7 HR/D 5 D/WK FOR 104 WK (STUDY DURATION: LIFETIME), 100, 300, 600 PPM 7 HR/D 5 D/WK FOR 104 WK (STUDY DURATION: LIFETIME), Tumor Site: Type of Lesion: TESTIS: LEYDIG CELL TUMOR)?
Answer: active; positive

Question: With `Cc1ccc(N)cc1Cl` as the compound, how does the carcinogen call (Species: MOUSE, Strain/Sex: B6C3F1/FEMALE, Route: ORAL, 300, 600 PPM IN DIET, 300, 600 PPM IN DIET) read?
Answer: inactive; negative

Question: And the carcinogen call (Species: MOUSE, Strain/Sex: B6C3F1/MALE, Route: ORAL, 600, 1200 PPM IN DIET, 600, 1200 PPM IN DIET)?
Answer: inactive; negative

Question: What about the carcinogen call (Species: RAT, Strain/Sex: F344/FEMALE, Route: ORAL, 1635, 3269 PPM IN DIET, TWA, 1635, 3269 PPM IN DIET, TWA) of the same compound?
Answer: inactive; negative

Question: What about the carcinogen call (Species: RAT, Strain/Sex: F344/MALE, Route: ORAL, 1635, 3269 PPM IN DIET, TWA, 1635, 3269 PPM IN DIET, TWA) of the same compound?
Answer: inactive; negative
